One test deals with mexB (PA) strain. The test can be described thus: Combinational effect with antibacterial agent against Pseudomonas aeruginosa (Test Examples 2 and 4): mexB (PA) strain with LVFX, TC or AZT at 1/4 MIC, EC99. It is filed as cell-based. Particulars: for EC99, combinational effect with AZT, mexB (PA) / EC99, combinational effect with LVFX, mexB (PA) / EC99, combinational effect with TC, mexB (PA): mexB (PA) strain, Test Example 4; for EC99, combinational effect with AZT, mexB (PA) / EC99, mexB (PA), AZT: combined with AZT at 1/4 MIC; for EC99, combinational effect with LVFX, mexB (PA) / EC99, mexB (PA), LVFX: combined with LVFX at 1/4 MIC; for EC99, combinational effect with TC, mexB (PA) / EC99, mexB (PA), TC: combined with TC at 1/4 MIC; for EC99, mexB (PA), AZT / EC99, mexB (PA), LVFX / EC99, mexB (PA), TC: Table 52, Test Example 2, 16 to 20 hours culture, OD595. Summed up: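 P. aeruginosa mexB (PA) strain, lacking MexCD-OprJ, MexEF-OprN and MexXY and overexpressing MexAB-OprM, grown 16–20 h in CAMHB (10^4–5 CFU/well) with LVFX, TC or AZT at ¼ MIC plus test compound at 0–800 μM. Growth read as OD595; EC99 is the lowest compound concentration giving ≥99% growth inhibition.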

The subject of the next test is S-3769 strain. In words: Combinational effect with antibacterial agent against Pseudomonas aeruginosa (Test Examples 2 and 4): S-3769 strain with AMK or GM at 1/4 MIC, EC99. It is filed as cell-based. Particulars: for EC99, combinational effect with AMK, S-3769 strain / EC99, S-3769 strain, AMK: combined with AMK at 1/4 MIC; for EC99, combinational effect with AMK, S-3769 strain / EC99, combinational effect with GM, S-3769 strain: Test Example 4; for EC99, combinational effect with GM, S-3769 strain / EC99, S-3769 strain, GM: combined with GM at 1/4 MIC; for EC99, S-3769 strain, AMK / EC99, S-3769 strain, GM: Table 52, Test Example 2, 16 to 20 hours culture, OD595. Summed up: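 P. aeruginosa S-3769 (clinical isolate, MexY overexpressed) grown 16–20 h in CAMHB, 10^4 to 5 CFU/well, with AMK or GM at ¼ MIC plus test compound 0–800 μM. Growth read as OD595; EC99 is the lowest compound concentration giving ≥99% growth inhibition.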

This note sets out measurements from US20250326744A1, “PIPERAZINE DERIVATIVE OR SALT THEREOF, AND PHARMACEUTICAL COMPOSITION” (priority 2022, published 2025).

Where a name gives a salt, the structure may show the parent alone.

As for `CCSc1ccc(O)cc1CN1CCN(C(=O)[C@H](N)C2CCN(CCc3cc(Cl)ccc3-c3cc(O)cc(F)c3)CC2)CC1` [Example 620, (R)-2-amino-2-(1-(2-(4-chloro-3′-fluoro-5′-hydroxy-[1,1′-biphenyl]-2-yl)ethyl)piperidin-4-yl)-1-(4-(2-(ethylthio)-5-hydroxybenzyl)piperazin-1-yl)ethan-1-one], in the test on mexB (PA) strain, the “EC99, combinational effect with AZT, mexB (PA)” value (from here on “EC99 … with AZT, mexB (PA)”) is reported as “S (EC99≤12.5 μM)”; the “EC99, combinational effect with LVFX, mexB (PA)” value (“EC99 … with LVFX, mexB (PA)” below) was “S (EC99≤12.5 μM)”; the “EC99, combinational effect with TC, mexB (PA)” value (“EC99 … with TC, mexB (PA)” below) is recorded as “S (EC99≤12.5 μM)”. In the test with S-3769 strain, the “EC99, combinational effect with AMK, S-3769 strain” value (from here on “EC99, combinational effect with AMK”) was “S (EC99≤12.5 μM)” and the “EC99, combinational effect with GM, S-3769 strain” value (from here on “EC99, combinational effect with GM”) was “S (EC99≤12.5 μM)”.
Take `N[C@@H](C(=O)N1CCN(Cc2scc3c2OCCO3)CC1)C1CCN(CCc2cc(Cl)ccc2-c2ccccc2)CC1` [Example 11, Hydrobromide of (R)-2-amino-2-(1-(2-(4-chloro-[1,1′-biphenyl]-2-yl)ethyl)piperidin-4-yl)-1-(4-((2,3-dihydrothieno[3,4-b][1,4]dioxin-5-yl)methyl)piperazin-1-yl)ethan-1-one]: in the test with mexB (PA) strain, the “EC99, mexB (PA), AZT” value is “B (25 μM<EC99≤100 μM)”; the “EC99, mexB (PA), LVFX” value is “B (25 μM<EC99≤100 μM)”; the “EC99, mexB (PA), TC” value was “B (25 μM<EC99≤100 μM)”. For the same compound, in the test with S-3769 strain, the “EC99, S-3769 strain, AMK” value was “B (25 μM<EC99≤100 μM)” and the “EC99, S-3769 strain, GM” value is “A (12.5 μM<EC99≤25 μM)”.
With `CCOc1cccc(F)c1CN1CCN(C(=O)[C@H](N)C2CCN(CCc3cc(Cl)ccc3-c3cc(O)ccc3F)CC2)CC1` [Example 585, (R)-2-amino-2-(1-(2-(4-chloro-2′-fluoro-5′-hydroxy-[1,1′-biphenyl]-2-yl)ethyl)piperidin-4-yl)-1-(4-(2-ethoxy-6-fluorobenzyl)piperazin-1-yl)ethan-1-one], in the test with mexB (PA) strain, the “EC99 … with AZT, mexB (PA)” value was “S (EC99≤12.5 μM)”; the “EC99 … with LVFX, mexB (PA)” value was “S (EC99≤12.5 μM)”; the “EC99 … with TC, mexB (PA)” value is “S (EC99≤12.5 μM)”. In the test with S-3769 strain, the “EC99, combinational effect with AMK” value is reported as “S (EC99≤12.5 μM)” and the “EC99, combinational effect with GM” value was “S (EC99≤12.5 μM)”.
Consider `CCSc1cc(F)ccc1CN1CCN(C(=O)[C@H](N)C2CCN(CCc3cc(Cl)ccc3-c3ccccc3O)CC2)CC1` [Example 594, Hydrochloride of (R)-2-amino-2-(1-(2-(4-chloro-2′-hydroxy-[1,1-biphenyl]-2-yl)ethyl)piperidin-4-yl)-1-(4-(2-(ethylthio)-4-fluorobenzyl)piperazin-1-yl) ethan-1-one], for which, in the test with mexB (PA) strain, the “EC99 … with AZT, mexB (PA)” value is on record as “S (EC99≤12.5 μM)”; the “EC99 … with LVFX, mexB (PA)” value is “A (12.5 μM<EC99≤25 μM)”; the “EC99 … with TC, mexB (PA)” value was “S (EC99≤12.5 μM)”. Further, in the test on S-3769 strain, the “EC99, combinational effect with AMK” value is recorded as “S (EC99≤12.5 μM)” and the “EC99, combinational effect with GM” value is given as “A (12.5 μM<EC99≤25 μM)”.
Consider `CSc1cccnc1CN1CCN(C(=O)[C@H](N)C2CCN(CCc3cc(Cl)ccc3-c3ccccc3)CC2)CC1` [Example 536, Hydrobromide of (R)-2-amino-2-(1-(2-(4-chloro-[1,1-biphenyl]-2-yl)ethyl)piperidin-4-yl)-1-(4-((3-(methylthio)pyridin-2-yl)methyl)piperazin-1-yl)ethan-1-one], for which, in the test with mexB (PA) strain, the “EC99 … with AZT, mexB (PA)” value is “A (12.5 μM<EC99≤25 μM)”; the “EC99 … with LVFX, mexB (PA)” value is reported as “A (12.5 μM<EC99≤25 μM)”; the “EC99 … with TC, mexB (PA)” value is on record as “B (25 μM<EC99≤100 μM)”. Further, in the test on S-3769 strain, the “EC99, combinational effect with AMK” value is given as “B (25 μM<EC99≤100 μM)” and the “EC99, combinational effect with GM” value is “B (25 μM<EC99≤100 μM)”.
Regarding `CCSc1cc(F)ccc1CN1CCN(C(=O)[C@H](N)C2CCN(CCc3ccc(O)cc3-c3ccccc3)CC2)CC1` [Example 624, Hydrochloride of (R)-2-amino-1-(4-(2-(ethylthio)-4-fluorobenzyl)piperazin-1-yl)-2-(1-(2-(5-hydroxy-[1,1-biphenyl]-2-yl)ethyl)piperidin-4-yl)ethan-1-one], in the test with mexB (PA) strain, the “EC99 … with AZT, mexB (PA)” value is “C (100 μM<EC99)”; the “EC99 … with LVFX, mexB (PA)” value is on record as “B (25 μM<EC99≤100 μM)”; the “EC99 … with TC, mexB (PA)” value is “B (25 μM<EC99≤100 μM)”. In addition, in the test with S-3769 strain, the “EC99, combinational effect with AMK” value was “B (25 μM<EC99≤100 μM)” and the “EC99, combinational effect with GM” value is “B (25 μM<EC99≤100 μM)”.
Take `CCc1ccccc1CN1CCN(C(=O)[C@H](N)C2CCN(CCc3cc(Cl)ccc3-c3ccccc3)CC2)CC1` [Example 505, Hydrobromide of (R)-2-amino-2-(1-(2-(4-chloro-[1,1-biphenyl]-2-yl)ethyl)piperidin-4-yl)-1-(4-(2-ethylbenzyl)piperazin-1-yl)ethan-1-one]: in the test on mexB (PA) strain, the “EC99 … with AZT, mexB (PA)” value is “B (25 μM<EC99≤100 μM)”; the “EC99 … with LVFX, mexB (PA)” value is on record as “B (25 μM<EC99≤100 μM)”; the “EC99 … with TC, mexB (PA)” value is “B (25 μM<EC99≤100 μM)”. In addition, in the test with S-3769 strain, the “EC99, combinational effect with AMK” value is on record as “B (25 μM<EC99≤100 μM)” and the “EC99, combinational effect with GM” value is given as “B (25 μM<EC99≤100 μM)”.
For `CSc1ccc(O)cc1CN1CCN(C(=O)[C@H](N)C2CCN(CCc3cc(Cl)ccc3-c3ccccc3)CC2)CC1` [Example 587, Hydrochloride of (R)-2-amino-2-(1-(2-(4-chloro-[1,1-biphenyl]-2-yl)ethyl)piperidin-4-yl)-1-(4-(5-hydroxy-2-(methylthio)benzyl)piperazin-1-yl) ethan-1-one], in the test with mexB (PA) strain, the “EC99 … with AZT, mexB (PA)” value is “S (EC99≤12.5 μM)”; the “EC99 … with LVFX, mexB (PA)” value was “S (EC99≤12.5 μM)”; the “EC99 … with TC, mexB (PA)” value is recorded as “S (EC99≤12.5 μM)”. Also, in the test on S-3769 strain, the “EC99, combinational effect with AMK” value is on record as “A (12.5 μM<EC99≤25 μM)” and the “EC99, combinational effect with GM” value is reported as “A (12.5 μM<EC99≤25 μM)”.
For `N[C@@H](C(=O)N1CCN(Cc2ccccc2C(F)(F)F)CC1)C1CCN(CCc2cc(Cl)ccc2-c2ccccc2)CC1` [Example 510, Hydrobromide of (R)-2-amino-2-(1-(2-(4-chloro-[1,1-biphenyl]-2-yl)ethyl)piperidin-4-yl)-1-(4-(2-(trifluoromethyl)benzyl)piperazin-1-yl)ethan-1-one], in the test with mexB (PA) strain, the “EC99 … with AZT, mexB (PA)” value is on record as “B (25 μM<EC99≤100 μM)”; the “EC99 … with LVFX, mexB (PA)” value is reported as “B (25 μM<EC99≤100 μM)”; the “EC99 … with TC, mexB (PA)” value is reported as “A (12.5 μM<EC99≤25 μM)”. In addition, in the test with S-3769 strain, the “EC99, combinational effect with AMK” value was “A (12.5 μM<EC99≤25 μM)” and the “EC99, combinational effect with GM” value was “B (25 μM<EC99≤100 μM)”.
In the case of `CCOc1cccc(F)c1CN1CCN(C(=O)[C@H](N)C2CCN(CCc3cccc4ccc(OC)cc34)CC2)CC1` [Example 149, Hydrobromide of (R)-2-amino-1-(4-(2-ethoxy-6-fluorobenzyl)piperazin-1-yl)-2-(1-(2-(7-methoxynaphthalen-1-yl)ethyl)piperidin-4-yl)ethan-1-one], in the test with mexB (PA) strain, the “EC99, mexB (PA), AZT” value is on record as “C (100 μM<EC99)”; the “EC99, mexB (PA), LVFX” value is listed as “C (100 μM<EC99)”; the “EC99, mexB (PA), TC” value was “B (25 μM<EC99≤100 μM)”. Also, in the test on S-3769 strain, the “EC99, S-3769 strain, AMK” value is listed as “S (EC99≤12.5 μM)” and the “EC99, S-3769 strain, GM” value was “S (EC99≤12.5 μM)”.
Turning to `CCOc1cccc(F)c1CN1CCN(C(=O)[C@H](N)C2CCN(CCc3cc(O)ccc3-c3ccccc3)CC2)CC1` [Example 596, Hydrochloride of (R)-2-amino-1-(4-(2-ethoxy-6-fluorobenzyl)piperazin-1-yl)-2-(1-(2-(4-hydroxy-[1,1′-biphenyl]-2-yl)ethyl)piperidin-4-yl)ethan-1-one], in the test with mexB (PA) strain, the “EC99 … with AZT, mexB (PA)” value is “C (100 μM<EC99)”; the “EC99 … with LVFX, mexB (PA)” value is “B (25 μM<EC99≤100 μM)”; the “EC99 … with TC, mexB (PA)” value is listed as “B (25 μM<EC99≤100 μM)”. In addition, in the test on S-3769 strain, the “EC99, combinational effect with AMK” value is “S (EC99≤12.5 μM)” and the “EC99, combinational effect with GM” value was “A (12.5 μM<EC99≤25 μM)”.
For the compound `CCSc1cc(F)ccc1CN1CCN(C(=O)[C@H](N)C2CCN(CCc3cscc3-c3ccccc3)CC2)CC1` [Example 608, Hydrochloride of (R)-2-amino-1-(4-(2-(ethylthio)-4-fluorobenzyl)piperazin-1-yl)-2-(1-(2-(4-phenylthiophen-3-yl)ethyl)piperidin-4-yl)ethan-1-one], in the test with mexB (PA) strain, the “EC99 … with AZT, mexB (PA)” value is on record as “B (25 μM<EC99≤100 μM)”; the “EC99 … with LVFX, mexB (PA)” value was “B (25 μM<EC99≤100 μM)”; the “EC99 … with TC, mexB (PA)” value is “B (25 μM<EC99≤100 μM)”. Also, in the test with S-3769 strain, the “EC99, combinational effect with AMK” value is given as “B (25 μM<EC99≤100 μM)” and the “EC99, combinational effect with GM” value was “B (25 μM<EC99≤100 μM)”.
